Test results reported in ChEMBL document CHEMBL4138197, “Design, synthesis and pharmacological evaluation of N-(5-chloro-2,4-dihydroxybenzoyl)-(R)-N-arylmethyl-1,2,3,4-tetrahydro-3-isoquinolinecarboxamides as potent Hsp90 inhibitors” (Eur J Med Chem, 2018).
The source made the active and inactive calls. The rule behind the calls is not given here.

Key:
MDA-MB-231 = assay: Antiproliferative activity against human MDA-MB-231 cells after 72 hrs by SRB assay; type: functional, cell-based; conditions: MDA-MB-231, 72 h
MDA-MB-453 [1] = assay: Cell cycle arrest in human MDA-MB-453 cells assessed as reduction in accumulation at S phase at 0.25 to 1 uM after 12 hrs by propidium iodide-staining based flow cytometry; type: functional
[2] = molecular target: Heat shock protein HSP 90-alpha (Homo sapiens) (UniProt P07900); assay: Inhibition of HSP90alpha in human MDA-MB-453 cells assessed as down-regulation of CDK4 levels by Western blot analysis; type: cell-based
MDA-MB-453 [3] = assay: Induction of apoptosis in human MDA-MB-453 cells assessed as late apoptotic cells at 0.25 uM after 48 hrs by Annexin V-FITC/propidium iodide-staining based flow cytometry (reference value: 3.40%); type: functional
[4] = molecular target: Heat shock protein HSP 90-alpha (Homo sapiens) (UniProt P07900); assay: Inhibition of HSP90alpha in human MDA-MB-453 cells assessed as down-regulation of CHK1 levels by Western blot analysis; type: cell-based
MDA-MB-453 [5] = assay: Induction of apoptosis in human MDA-MB-453 cells assessed upregulation of bim expression at 0.25 uM by Western blot analysis; type: functional, cell-based; conditions: TDE = time-dependent effect
SH-SY5Y = assay: Antiproliferative activity against human SH-SY5Y cells by SRB assay; type: functional, cell-based
MDA-MB-453 [6] = assay: Induction of apoptosis in human MDA-MB-453 cells assessed as necrotic cells at 0.25 uM after 48 hrs by Annexin V-FITC/propidium iodide-staining based flow cytometry (reference value: 0.01%); type: functional
U-251 = assay: Antiproliferative activity against human U251 cells by SRB assay; type: functional, cell-based
MDA-MB-453 [7] = assay: Induction of apoptosis in human MDA-MB-453 cells assessed as increase in cleaved caspase7 activity at 0.25 uM up to 48 hrs in presence of z-VAD-fmk by Western blot analysis; type: functional, cell-based
[8] = molecular target: Heat shock protein HSP 90-alpha (Homo sapiens) (UniProt P07900); assay: Inhibition of HSP90alpha in human MDA-MB-453 cells assessed as down-regulation of cdc2 levels by Western blot analysis; type: cell-based
MDA-MB-453 [9] = assay: Induction of apoptosis in human MDA-MB-453 cells after 48 hrs by Annexin V-FITC/propidium iodide-staining based flow cytometry; type: functional, cell-based
[10] = molecular target: T1, Heat shock protein HSP90 (Homo sapiens) (UniProt P07900+P08238); assay: Inhibition of HSP90 in human MDA-MB-453 cells assessed as suppression of TNFalpha-induced NFkappaB activation by measuring reduction in relA/p65 translocation to the nucleus at 0.25 uM after 24 hrs by Western blot analysis; type: cell-based
[11] = molecular target: Heat shock protein HSP 90-alpha (Homo sapiens) (UniProt P07900); assay: Inhibition of HSP90alpha in human MDA-MB-453 cells assessed as down-regulation of HER2 levels by Western blot analysis; type: cell-based
MDA-MB-453 [12] = assay: Effect on Bax protein expression in human MDA-MB-453 cells at 0.25 uM incubated for 6 to 48 hrs by Western blot analysis; type: functional, cell-based
MDA-MB-453 [13] = assay: Induction of apoptosis in human MDA-MB-453 cells assessed upregulation of bid expression at 0.25 uM by Western blot analysis; type: functional, cell-based; conditions: TDE = time-dependent effect
MDA-MB-453 [14] = assay: Induction of apoptosis in human MDA-MB-453 cells assessed as late apoptotic cells at 4 uM after 48 hrs by Annexin V-FITC/propidium iodide-staining based flow cytometry (reference value: 3.40%); type: functional
MDA-MB-453 [15] = assay: Cell cycle arrest in human MDA-MB-453 cells assessed as increase in accumulation at G0/G1 phase at 0.25 to 1 uM after 12 hrs by propidium iodide-staining based flow cytometry; type: functional
MDA-MB-453 [16] = assay: Induction of apoptosis in human MDA-MB-453 cells assessed as increase in cleaved PARP activity at 0.25 uM up to 48 hrs by Western blot analysis; type: functional, cell-based
[17] = molecular target: Heat shock protein HSP 90-alpha (Homo sapiens) (UniProt P07900); assay: Inhibition of HSP90alpha in human MDA-MB-453 cells assessed as down-regulation of C-RAF levels by Western blot analysis; type: cell-based
MDA-MB-453 [18] = assay: Induction of apoptosis in human MDA-MB-453 cells assessed as early apoptotic cells at 0.25 uM after 48 hrs by Annexin V-FITC/propidium iodide-staining based flow cytometry (reference value: 1.65%); type: functional
MDA-MB-453 [19] = assay: Induction of apoptosis in human MDA-MB-453 cells assessed as increase in cleaved caspase7 activity at 0.25 uM up to 48 hrs by Western blot analysis; type: functional, cell-based
[20] = molecular target: T2, MAP kinase p38 (Homo sapiens) (UniProt O15264+Q15759+Q16539+P53778); assay: Induction of p38 phosphorylation in human MDA-MB-453 cells at 0.25 uM after 48 hrs in presence of […] by Western blot analysis; type: cell-based
SK-OV-3 = assay: Antiproliferative activity against human SKOV3 cells by SRB assay; type: functional, cell-based
MCF7 = assay: Antiproliferative activity against human MCF7 cells by SRB assay; type: functional, cell-based
MDA-MB-453 [21] = assay: Induction of apoptosis in human MDA-MB-453 cells assessed as early apoptotic cells at 1 uM after 48 hrs by Annexin V-FITC/propidium iodide-staining based flow cytometry (reference value: 1.65%); type: functional
[22] = molecular target: T2, MAP kinase p38 (Homo sapiens); assay: Induction of p38 phosphorylation in human MDA-MB-453 cells at 0.25 uM after 48 hrs by Western blot analysis; type: cell-based
PC-3 = assay: Antiproliferative activity against human PC3 cells by SRB assay; type: functional, cell-based
MDA-MB-453 [23] = assay: Induction of apoptosis in human MDA-MB-453 cells assessed as increase in cleaved PARP activity at 0.25 uM up to 48 hrs in presence of z-VAD-fmk by Western blot analysis; type: functional, cell-based
SW480 = assay: Antiproliferative activity against human SW480 cells by SRB assay; type: functional, cell-based
[24] = molecular target: Heat shock protein HSP 90-alpha (Homo sapiens) (UniProt P07900); assay: Inhibition of HSP90alpha in human MDA-MB-453 cells assessed as down-regulation of EGFR levels by Western blot analysis; type: cell-based
[25] = molecular target: T1, Heat shock protein HSP90 (Homo sapiens); assay: Inhibition of HSP90 in human MDA-MB-453 cells assessed as downmodulation of IKKbeta expression at 0.25 uM up to 48 hrs by Western blot analysis; type: cell-based
A549 [26] = assay: Antiproliferative activity against human A549 cells after 72 hrs by SRB assay; type: functional, cell-based; conditions: A549, 72 h
HCT-116 = assay: Antiproliferative activity against human HCT116 cells by SRB assay; type: functional, cell-based
[27] = molecular target: T2, MAP kinase p38 (Homo sapiens); assay: Induction of p38 in human MDA-MB-453 cells assessed as upregulation of Hsp27 phosphorylation at Ser82 at 0.25 uM after 2 hrs in presence of […] by Western blot analysis; type: cell-based
A549 [28] = assay: Antiproliferative activity against human A549 cells by SRB assay; type: functional, cell-based
[29] = molecular target: T1, Heat shock protein HSP90 (Homo sapiens); assay: Inhibition of HSP90 in human MDA-MB-453 cells assessed as downmodulation of IKKgamma expression at 0.25 uM up to 48 hrs by Western blot analysis; type: cell-based
MDA-MB-453 [30] = assay: Induction of apoptosis in human MDA-MB-453 cells assessed as increase in cleaved caspase3 activity at 0.25 uM up to 48 hrs by Western blot analysis; type: functional, cell-based
[31] = molecular target: NF-kappa-B essential modulator (Homo sapiens) (UniProt Q9Y6K9); assay: Induction of IKKgamma association to hsp27 in human MDA-MB-453 cells at 0.25 uM after 6 hrs by immunoprecipitation and Western analysis; type: cell-based
Sequence of NF-kappa-B essential modulator (Homo sapiens) (Q9Y6K9 whole entry): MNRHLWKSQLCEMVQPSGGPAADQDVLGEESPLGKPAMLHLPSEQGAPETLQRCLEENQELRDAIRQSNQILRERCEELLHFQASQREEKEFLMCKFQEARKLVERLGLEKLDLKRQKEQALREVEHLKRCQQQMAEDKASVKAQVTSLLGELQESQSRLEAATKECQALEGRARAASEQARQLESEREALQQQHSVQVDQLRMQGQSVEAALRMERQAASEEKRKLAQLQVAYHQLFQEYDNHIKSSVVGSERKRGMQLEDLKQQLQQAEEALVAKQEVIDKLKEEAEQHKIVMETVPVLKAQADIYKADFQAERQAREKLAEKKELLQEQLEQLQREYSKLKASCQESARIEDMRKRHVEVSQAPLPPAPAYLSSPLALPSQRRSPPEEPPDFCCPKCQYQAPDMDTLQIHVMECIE

Question: What does the source list for O=C(NCc1ccncc1)[C@H]1Cc2ccccc2CN1C(=O)c1cc(Cl)c(O)cc1O?
Answer: IC50 (MDA-MB-231): 0.3 µM; Activity (MDA-MB-453 [1]): Active; inhibition [2]: Dose-dependent effect; Activity (MDA-MB-453 [3]): 4.19%; inhibition [4]: Dose-dependent effect; Activity (MDA-MB-453 [5]): Tde; Activity (SH-SY5Y): Active; Activity (MDA-MB-453 [6]): 0.02%; Activity (U-251): Active; Activity (MDA-MB-453 [7]): inactive; inhibition [8]: Dose-dependent effect; Activity (MDA-MB-453 [9]): Dose-dependent effect; inhibition [10]: Active; inhibition [11]: Dose-dependent effect; Activity (MDA-MB-453 [12]): inactive; Activity (MDA-MB-453 [13]): Tde; Activity (MDA-MB-453 [14]): 18.32%; Activity (MDA-MB-453 [15]): Active; Activity (MDA-MB-453 [16]): Active; inhibition [17]: Dose-dependent effect; Activity (MDA-MB-453 [18]): 4.26%; Activity (MDA-MB-453 [19]): Active; Activity [20]: inactive; Activity (SK-OV-3): Active; Activity (MCF7): Active; Activity (MDA-MB-453 [21]): 15.88%; Activity [22]: Active; Activity (PC-3): Active; Activity (MDA-MB-453 [23]): inactive; Activity (SW480): Active; inhibition [24]: Dose-dependent effect; inhibition [25]: Active; IC50 (A549 [26]): 0.42 µM; Activity (HCT-116): Active; Activity [27]: inactive; Activity (A549 [28]): Active; inhibition [29]: Active; Activity (MDA-MB-453 [30]): Active; Activity [31]: Active
